These results are taken from PubChem BioAssay (NCI).

Test in all cases: NCI tumour cell line growth inhibition, 48 h
Assay [1] concerns HCC-2998 colon.
For assay [2], the system named is M14 melanoma.
For assay [3], the system named is HCT-116 colon.
Assay [4] has as its system NCI/ADR-RES ovarian.
Assay [5] has as its system MDA-MB-231 breast.
The test system of assay [6] is SW-620 colon.
Assay [7] concerns NCI-H460 lung.
The subject of assay [8] is SNB-75 CNS.
In assay [9] the test system is SK-OV-3 ovarian.
Assay [10] concerns HOP-62 NSCLC.

Values joined by “and” are separate entries in the source; they are usually repeats but may differ in a detail not shown here. Identical values can stand only once.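 Grown in 96-well plates, cells were treated for 48 hours with each compound at five concentrations. Insufficient inhibition: endpoint recorded as highest concentration tested. GI50 is the concentration that inhibits growth by half. TGI is the concentration that stops growth completely.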 *1 amine or outer side, *2 acyl side, *3 side chain or, on linkers, in order; H or OH if unused. Where a SMILES comes first, the peptide text is derived from it. CO = O=C([*:1])[*:2] Where only a bound is given, the exact number is not on record here.

`CC1=Cc2cc3[n-]c(cc4nc(cc5[n-]c(cc1n2)c(C)c5CCC(=O)O)C(CCC(=O)O)=C4C)cc3C.[Cu+2]`: the GI50 in [1] is greater than 100 µM; in assay [2], greater than 79.1 µM; in assay [3], > 1 µM and 33.4 µM; in assay [4], 37.2 µM; in assay [5], 22.6 µM; in assay [6] it was greater than 47.7 µM. The GI50 in assay [7] is greater than 100 µM; in assay [8], > 1 µM and 8.39 µM; in assay [9], > 1 µM and 18.8 µM; in [10], > 1 µM and 20.8 µM. The TGI in [1] is greater than 100 µM; in assay [2], greater than 100 µM; in assay [3] it was greater than 100 µM; in [4], greater than 100 µM; in [5] it was 50.3 µM; in [6], greater than 79.6 µM. In addition, the TGI in [7] was greater than 100 µM; in assay [8], > 1 µM and 18.7 µM; in assay [9], > 1 µM and 41.9 µM; in [10], > 1 µM and 59.1 µM.
`COc1cc(-c2ccc(-[n+]3nc(-c4ccc([N+](=O)[O-])cc4)nn3-c3ccc([N+](=O)[O-])cc3)c(OC)c2)ccc1-[n+]1nc(-c2ccc([N+](=O)[O-])cc2)nn1-c1ccc([N+](=O)[O-])cc1`: the GI50 in [1] was 9.21 µM; in assay [2], 14.9 µM; in assay [3], 3.38 µM; in [4], 26.9 µM; in assay [5], 8.6 µM; in assay [6] it was 2.99 µM. Besides, the GI50 in [7] was 3.02 µM; in assay [8] it was 1.3 µM; in assay [9], 9.08 µM; in assay [10], 1.84 µM. The TGI was 29.3 µM in assay [1]; 67.2 µM in [2]; greater than 31.6 µM in [3]; greater than 100 µM in assay [4]; 34.7 µM in assay [5]; 25.1 µM in assay [6]. The TGI is 11.1 µM in assay [7], 2.95 µM in assay [8], 66.3 µM in [9] and 4.54 µM in assay [10].
With `CC(C)C(NC(=O)C(CCCN=C(N)N)NC(=O)NC(Cc1ccccc1)C(=O)O)C(=O)NC(C=O)CCCN=C(N)N` (stereo not drawn) ({Phe-CO}-Arg-Val-Arg-aldehyde; configuration not given here), the GI50 in assay [1] is 0.0202 µM; in assay [2], greater than 5 µM; in assay [3], greater than 5 µM; in assay [4] it was greater than 5 µM; in [5], greater than 5 µM; in assay [6], greater than 5 µM. The GI50 in [7], in assay [8], in assay [9] and in assay [10] was greater than 5 µM in each case. Moreover, the TGI in [1], in assay [2], in assay [3], in [4], in assay [5] and in [6] was greater than 5 µM each time. The TGI in assay [7], in assay [8], in [9] and in assay [10] was greater than 5 µM in each case.
In the case of `O=C(Nc1nc(-c2ccc(Cl)cc2)cs1)c1ccc(O)c(O)c1`, the GI50 in [1] was 12 µM; in [2], 4.87 µM; in assay [3], 3.71 µM; in assay [4], 3.89 µM; in assay [5] it was 4.39 µM; in assay [6], 4.74 µM. Moreover, the GI50 in assay [7] is 3.26 µM; in assay [8], 3.25 µM; in [9], 6.83 µM; in [10], 4.68 µM. The TGI in assay [1] worked out at 26.5 µM; in [2], 20.5 µM; in [3], 14.3 µM; in assay [4], 20.3 µM; in assay [5], 20.4 µM; in assay [6], 20.1 µM. In addition, the TGI in assay [7] came out at 12.2 µM; in [8], 17.4 µM; in assay [9], 22.4 µM; in [10], 17.6 µM.
Consider `Cc1cc(S(=O)(=O)/N=C(\N)n2nc(C)c(C)c2C)c(SCc2ccccc2)cc1Cl`, for which the GI50 was greater than 100 µM in [1]; greater than 100 µM in assay [2]; 38.5 µM in assay [3]; 9.22 µM in [4]; greater than 100 µM in assay [5]; 72.7 µM in assay [6]. Moreover, the GI50 was 6.57 µM in assay [7], greater than 100 µM in assay [8], greater than 100 µM in assay [9] and greater than 100 µM in assay [10]. In addition, the TGI in assay [1], in [2], in [3], in assay [4], in [5] and in assay [6] was greater than 100 µM each time. The TGI in assay [7], in assay [8], in assay [9] and in assay [10] was greater than 100 µM in each case.
Regarding `Cc1cc(Nc2nc(N3CCOCC3)nc3ccccc23)n[nH]1`, the GI50 in assay [1] was 24.8 µM; in assay [2] it was 7.14 µM; in [3], 3.64 µM; in assay [4] it was 18.2 µM; in assay [5] it was 15 µM; in assay [6], 4.81 µM. The GI50 was 4.45 µM in assay [7], 1.55 µM in assay [8], 3.69 µM in assay [9] and 6.22 µM in [10]. In addition, the TGI is greater than 100 µM in [1]; greater than 100 µM in [2]; 27 µM in assay [3]; greater than 100 µM in [4]; greater than 100 µM in assay [5]; 56.8 µM in assay [6]. Also, the TGI in [7] was greater than 100 µM; in [8], 7.49 µM; in assay [9], 40.9 µM; in assay [10] it was greater than 100 µM.
Turning to `COc1ccc(/C(Cl)=C(\C=O)c2cc(OC)c(OC)c(OC)c2)cc1OC`, the TGI in assay [1] was greater than 100 µM; in assay [2], greater than 100 µM; in assay [3], greater than 100 µM; in [4], 40.2 µM; in assay [5] it was greater than 100 µM; in assay [6], greater than 100 µM. Besides, the TGI in [7] is greater than 100 µM; in assay [8], greater than 28.1 µM; in [9], greater than 100 µM; in assay [10], greater than 100 µM.
As for `CCOC(=O)c1ccc2[nH]c(Cc3[nH]c4ccc(C(=O)OCC)cc4c3C)c(C)c2c1`, the GI50 was 4.35 µM in assay [1]; 5.98 µM in [2]; 0.556 µM in assay [3]; 2.52 µM in [4]; 2.4 µM in assay [5]; 1.41 µM in assay [6]. Besides, the GI50 in assay [7] is 0.167 µM; in assay [8], 4.2 µM; in assay [9] it was 2.04 µM; in assay [10], 2.58 µM. Moreover, the TGI in assay [1] was 59.3 µM; in [2], 34.1 µM; in [3], 8.58 µM; in [4], 18.5 µM; in assay [5], 12.3 µM; in [6], 15.6 µM. Further, the TGI in assay [7] was 6.44 µM; in assay [8] it was 23.4 µM; in assay [9] it was 16.6 µM; in assay [10] it was 14.7 µM.
Consider `COc1cc(/C=C/C(=O)CC(=O)/C=C/c2ccc(OC(=O)CCNC34CC5CC(CC(C5)C3)C4)c(OC)c2)ccc1OC(=O)CCNC12CC3CC(CC(C3)C1)C2`, for which the GI50 in assay [1] is 1.93 µM; in assay [2], 3.48 µM; in [3] it was 2.37 µM; in assay [4], 8 µM; in assay [5], 3.97 µM; in assay [6], 2.43 µM. Moreover, the GI50 in assay [7] was 2.5 µM; in assay [8] it was 4.85 µM; in assay [9] it was 6.75 µM; in assay [10], 3.99 µM. Further, the TGI was found to be 4.37 µM in assay [1]; 14.1 µM in assay [2]; 9.9 µM in assay [3]; 49.9 µM in [4]; 25.3 µM in assay [5]; 6.03 µM in [6]. Also, the TGI in [7] came out at 6.33 µM; in assay [8], 22.5 µM; in [9], 27.2 µM; in [10], 16.6 µM.
For the molecule `COc1ccc2c(c1)C(=O)c1c-2c(N2CCN(C(=O)CN(C)C)CC2)nc2ccccc12`, the GI50 is 15.2 µM in assay [1]; 15.6 µM in assay [2]; 11.6 µM in [3]; 19.7 µM in [4]; 13.3 µM in [5]; 10.3 µM in assay [6]. The GI50 in assay [7] is 6.01 µM; in assay [8], 11.8 µM; in assay [9], 19.6 µM; in [10] it was 13.6 µM. Besides, the TGI in assay [1] amounted to 40.5 µM; in assay [2], 31.5 µM; in assay [3] it was 26.3 µM; in [4], 57.1 µM; in assay [5], 28.9 µM; in assay [6], 26.3 µM. Further, the TGI in [7] is 20.6 µM; in assay [8], 27.7 µM; in [9], greater than 100 µM; in [10], 29.2 µM.
Take `Nc1c(C(=O)Nc2cccc3ccccc23)sc2nc3c(cc12)CCCCC3`: the GI50 in [1] was 2.41 µM; in [2], 0.339 µM; in [3] it was 0.407 µM; in [4], 0.402 µM; in [5] it was 1.27 µM; in [6] it was 0.538 µM. Further, the GI50 in [7] is 1.33 µM; in [8], 0.161 µM; in assay [9], 1.47 µM; in assay [10] it was 2.63 µM. The TGI in assay [1], in assay [2], in assay [3], in assay [4], in [5] and in assay [6] was greater than 50 µM throughout. In addition, the TGI in assay [7], in [8], in [9] and in assay [10] was greater than 50 µM throughout.
Consider `O=C(/C=C/C12c3ccccc3C(c3ccccc31)C1C(=O)NC(=O)C12)c1ccco1` (stereo not given), for which the GI50 in assay [1] was 1.79 µM; in assay [2], 3.1 µM; in assay [3], 1.69 µM; in assay [4] it was 2.38 µM; in assay [5], 3.85 µM; in assay [6], 2.59 µM. Moreover, the GI50 in [7] was 1.8 µM; in assay [8] it was 3.44 µM; in [9], 4.01 µM; in assay [10], 2.7 µM. Moreover, the TGI in assay [1] was 3.52 µM; in assay [2] it was 11.2 µM; in assay [3], 3.74 µM; in assay [4], 6.42 µM; in assay [5], 15.4 µM; in assay [6] it was 7.22 µM. Moreover, the TGI in assay [7] is 3.98 µM; in [8], 12.2 µM; in assay [9], 12.8 µM; in assay [10] it was 6.99 µM.
Consider `O=C(/C=C/c1ccc2c(c1)OCO2)c1ccccc1`, for which the GI50 was 16 µM in assay [1]; 13.2 µM in assay [2]; 3.74 µM in assay [3]; 20.6 µM in [4]; 24.4 µM in assay [5]; 3.72 µM in assay [6]. Besides, the GI50 in [7] was 13.9 µM; in assay [8], 20.6 µM; in [9], 27.5 µM; in assay [10] it was 23.9 µM. The TGI in [1] was 30.2 µM; in assay [2], 29.8 µM; in assay [3], 14.1 µM; in [4], 62.3 µM; in assay [5], 75.6 µM; in assay [6], 14.5 µM. In addition, the TGI stood at 37.5 µM in [7], 61.9 µM in assay [8], 83.1 µM in assay [9] and 80.9 µM in [10].
Consider `C=C1C(=O)O[C@H]2[C@H]1CC/C(Cn1cc(Cn3ccc4cc(Cl)ccc43)nn1)=C\CC[C@@]1(C)O[C@@H]21`, for which the GI50 in [1] is 1.98 µM; in [2], 1.65 µM; in [3] it was 1.5 µM; in [4], 2.54 µM; in [5] it was 1.36 µM; in [6], 1.13 µM. Moreover, the GI50 in assay [7] was 3.27 µM; in assay [8] it was 1.27 µM; in assay [9] it was 13.9 µM; in [10], 4.9 µM. The TGI is 3.92 µM in assay [1]; 3.63 µM in assay [2]; 3.12 µM in assay [3]; 9.09 µM in assay [4]; 2.82 µM in [5]; 2.78 µM in assay [6]. Further, the TGI in [7] was 10.3 µM; in assay [8], 4.52 µM; in assay [9], 26.9 µM; in assay [10] it was 20.1 µM.
